Assay results from patent publication US20240428951A1, “METHODS AND SYSTEMS FOR PERSONALIZED IN-SILICO HEMATOPOIESIS AND DISEASE/LEUKEMIA SIMULATION FOR TREATMENT SELECTION AND OPTIMIZATION” (GEORGIA TECH RESEARCH CORPORATION, priority 2021, published 2024).

Key:
[1] = Patient peripheral blood / neutrophil recovery during treatment; format: in vivo, human; details: one patient, 4 cycles of low-dose treatment (FIG. 10A, 11A)
From the text: FIGS. 10A and 10B show examples of visual representations of dynamic prediction of peripheral blood recovery determined using the method according to embodiments.
FIGS. 11A and 11B show examples of visual representations of retrospective comparisons of dynamic prediction of absolute neutrophils count (lines) determined using the method according to embodiments and patient clinical assessment of daily neutrophils count during treatment (dots).
The patient initially presented with granulocytic dysplasia that delayed neutrophil recovery.

leukemic blasts = assay: Patient leukemia response to treatment (percentage of leukemic blasts in BM, clinical assessments compared with simulation); format: in vivo, human; details: one patient
From the text: FIGS. 9A and 9B show examples of visual representations of retrospective comparisons of dynamic prediction of the overall percentage of abnormal cells/leukemic blasts (lines) determined using the method according to embodiments and patient clinical assessments (dots).
FIGS. 9A and 9B show examples of visualizations of dynamic prediction of the overall percentage of leukemic blasts. By showing the percentage of overall leukemic blasts (addition of all subclones) in graphs, the leukemic burden in BM can be visualized.

Structure (SMILES): Nc1ccn([C@@H]2O[C@H](CO)[C@@H](O)[C@@H]2O)c(=O)n1 [Ara-C, Cytosine Arabinoside]
- hematological recovery [1]: complete hematological recovery
- treatment outcome (leukemic blasts; 2 cycles of low-dose treatment (FIG. 9A)): complete remission
- leukemic blasts (leukemic blasts; 2 cycles of low-dose treatment (FIG. 9A), bone marrow): < 5%
- treatment outcome (leukemic blasts; 4 cycles of low-dose treatment (FIG. 10A, 11A)): complete remission
